Test results from patent publication US10550142B2, “Quercetin-based compound” (AMOREPACIFIC CORPORATION, priority 2016, dated 2020).

Molecular target: T1, β-amyloid (Aβ1-42) (Homo sapiens, UniProt P05067)
T1 construct: β-amyloid (Aβ1-42, AnaSpec Inc, USA) was obtained; purchased AnaSpec Inc, USA
Assay: Beta-amyloid aggregation inhibition, fluorescence analysis (Thioflavin T assay)
Type: biochemical
Settings: compound 10 μM; for Increased RFU (% of Pos.Cont.): aggregated β-amyloid compared to the positive control (no compound) = 100; for decreased aggregation compared with the positive control: positive control taken as 100%
Description: The beta-amyloid aggregation inhibitory effect of quercetin 3-O-[3-O″-(E)-p-coumaroyl][β-D-glucopyranosyl-(1→3)-O-α-L-rhamnopyranosyl-(1→6)-O-β-D-glucopyranoside] and quercetin 3-O-[3-O″-(E)-p-coumaroyl][α-L-rhamnopyranosyl-(1→6)-O-β-D-glucopyranoside] was determined by fluorescence analysis (Thioflavin T assay). Specifically, β-amyloid (Aβ1-42, AnaSpec Inc, USA) was obtained and used at a concentration of 0.1 mg/ml. It was stored at −80° C. prior to use. Each of morin (20 μM), phenol red (20 μM), quercetin 3-O-[3-O″-(E)-p-coumaroyl][β-D-glucopyranosyl-(1→3)-O-α-L-rhamnopyranosyl-(1→6)-O-β-D-glucopyranoside] (1 mg/ml), and quercetin 3-O-[3-O″-(E)-p-coumaroyl][α-L-rhamnopyranosyl-(1→6)-O-β-D-glucopyranoside] (1 mg/ml) was diluted to these concentrations in DMSO. In order to determine the degree of inhibition of Aβ1-42 aggregation, each compound at the above concentration was diluted to 10 μM in 50 μL of 0.01 M sodium phosphate buffer solution. Then, 40 μL of 0.1 mg/ml Aβ1-42 was added thereto, followed by addition of 10 μL of 2 mM Thioflavin T. The fluorescence was then measured with a fluorescence spectrometer (RF-5300PC, SHIMADZU CORPORATION, Japan) at 37° C. and intervals of 5 minutes for 150 minutes. In the table above, “RFU” denotes relative fluorescence unit, and “increased RFU” indicates the amount of aggregated β-amyloid. “Increased RFU (% of Pos.Cont.)” indicates the percentage of aggregated β-amyloid compared to the positive control. “Novel substance 31” indicates quercetin 3-O-[3-O″-(E)-p-coumaroyl][β-D-glucopyranosyl-(1→3)-O-α-L-rhamnopyranosyl-(1→6)-O-β-D-glucopyranoside], and “novel substance 32” indicates quercetin 3-O-[3-O″-(E)-p-coumaroyl][α-L-rhamnopyranosyl-(1→6)-O-β-D-glucopyranoside].

T1 sequence (P05067 672-713 limits assumed): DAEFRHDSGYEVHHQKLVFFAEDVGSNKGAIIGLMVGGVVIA

Row | Compound | Increased RFU (amount of aggregated β-amyloid) (Aβ1-42 0.1 mg/ml, 37° C., 150 minutes) | Increased RFU (% of Pos.Cont.) | decreased aggregation compared with the positive control
1 | O=c1c(O)c(-c2ccc(O)cc2O)oc2cc(O)cc(O)c12 [Morin, morin, reference compound] | 11471 RFU | 78.6% | 21.4%
2 | O=S1(=O)OC(c2ccc(O)cc2)(c2ccc(O)cc2)c2ccccc21 [Phenol Red, phenol red, reference compound] |  | 93.6% | 6.4%
